Results: US20060246117A1, “Animal husbandry method for administering a vitamin E derivative and formulation” (ADISSEO FRANCE S.A.S., priority 2003, published 2006)

How the values were obtained:
[1] = Digestibility of vitamin E from faecal excretion in caecectomized cocks (Example 7); format: in vivo; conditions: treatment 1: Tac 40 mg, no emulsifier
Protocol: Two series of tests were carried out on caecectomized cocks. The first series comprised 32 cocks while the second comprised 51 cocks. They were fed, by “wet gavage”, with a feed which incorporated Tac (vitamin E acetate) or Tac combined, in different proportions, with one or two alimentary emulsifiers according to the invention. The Tac or the combined Tac was formulated in gelatin capsules, which were obtained by using a pipette to deposit a predetermined quantity of Tac or combined Tac in a capsule half shell and then closing the capsule with the other half shell. 48 hours after the ingestion of feed from a bowl, the faeces are collected and the excretion of the vitamin in this material is determined. To this end, the vitamin E is extracted with a vitamin E solvent, for example hexane, and the quantity extracted is then determined by HPLC chromatography. The proportion of vitamin E which has been digested is deduced from the proportion which has been excreted.

[2] = Plasma vitamin E level of piglets after intraduodenal infusion (Example 9); format: in vivo; conditions: 800 IU single bolus intraduodenally; pooled samples 4-24 h postprandially
Text: In order to exclude gastric influences or impacts of the carrier, the emulsifier of the invention was intraduodenally infused in liquid form (oil).
Three weaning piglets (initial BW 12 kg) were surgically fitted with a silicon catheter in the jugular vein as well as with a silicon cannula in the proximal duodenum according to the procedure described by Thaela et al. (1995).
A standard weaner diet without vitamin E supplementation was fed to the piglets. The animals were fed a daily feed allowance corresponding to 2.0×W^0.75, distributed twice in equal meals (08.00 h and 16.00). The animals were adapted for 7d to the basal diet. […] 2 treatments×3 piglets×2 repetitions (cross-over)
R1: 800 IU Vitamin E standard oil, infused as a single bolus intraduodenally
Blood samples were taken 4, 8, 12, 16, 20 and 24 h postprandially, plasma was obtained and samples were pooled. After the experiment, the animals were newly adapted to the basal diet for 7d before the 2nd repetition was done accordingly. The vitamin E content in the plasma was determined by HPLC according to the method by Castan et al. (2005). Data were analysed using the ANOVA procedure of Statview.

[3] = Release of Tac from its silica support (Example 4); format: physicochemical; conditions: 2.5 hours, 38° C., Tac on silica
Protocol: The present example tests the effect of an emulsifier according to the invention, i.e. SMO (sorbitan monooleate), on the release of Tac which is attached to silica. To this end, use is made of Tac on a silica support, in a ratio by weight of 1:1, for the assay without emulsifier, and of Tac+emulsifier (SMO) on silica in a ratio by weight of 50:5:45.
10 g of Tac (where appropriate +SMO) on the above silica (that is a final concentration of Tac of 10 mM) are incubated for 2.5 hours, while stirring and at 38° C., under different pH conditions in the following solutions:
either 35 mM phosphate, pH 6.5, 0.15 mM NaCl
or 35 mM HCl/glycine, pH 2.5

[4] = Plasma and liver vitamin E levels of broilers fed graded doses (Example 10); format: in vivo, Ross male broiler chicks; conditions: d35, diets fed d15 to d34
Text: R3: Control+120 IU/kg standard Vit E
R4: Control+200 IU/kg standard Vit E
Three hundred Ross male broiler chicks were divided into 6 groups and housed in 6 pens. From d0 to d14, all animals were fed the same, vitamin E free, basal diet.
The animals received the pelleted experimental diets (R1-R6) ad libitum from d15 to d34. On d35, 15 broilers per treatment, which were closest to the mean body weight, were selected. Plasma samples were collected by intracardiac puncture. Birds were then slaughtered by pentobarbital injection. Livers were dissected, deep frozen in liquid nitrogen and immediately ground. The vitamin E levels in plasma or livers were determined by HPLC according to the method by Castan et al. (2005). Data were analysed using the ANOVA procedure of Statview.

[5] = test system: CaCo-2; assay: Absorption of Tol and Tac by CaCo-2 cells in M20 medium, one hour at 37° C., non-ethoxylated versus ethoxylated emulsifiers (Example 3); format: in vitro ADME
Protocol: Absorption assays are carried out, using the same cell line as that described above, by incubating the cells for 3 hours in a physiological medium which is similar to the intestinal medium and which contains cholesterol ester hydrolase (CEH), the pancreatic enzyme which hydrolyzes the Tac into vitamin E in the animal, and sodium taurocholate, which represents the bile salts. This medium comes in the form of an oil-in-water emulsion, i.e. in the form of micelles, and is commercially identified under the reference M20. The Tac, and, where appropriate, the emulsifier being tested, are placed in this medium. The concentration, in vitamin E equivalent, which is introduced into each well in the form of Tac is 156 μM.
The general experimental conditions of the protocol described in Example 2, 2.1) are identical apart from the fact that the area of the wells and the concentration of Tac introduced into the M20 medium differ. The area of the wells is 6.5 cm^2 and the concentration of Tac is 23.7 μM/cm^2.
Four experiments are carried out, with each being repeated three times, using a protocol which comprises one hour of incubation at 37° C., as follows: • 1) M20 on its own, at the rate of 2 mM; the Tac is therefore on its own without emulsifier; • 2) M20+SML (sorbitan monolaurate) emulsifier • 3) M20+SMP (sorbitan monopalmitate) emulsifier • 4) M20+ESML (ethoxylated sorbitan monolaurate)
In the case of each of the assays 2), 3) and 4), the ratio by weight of the added emulsifier to the Tac (in vitamin E equivalent) is 1:6.9.
Four experiments are carried out, with each being repeated three times, using a protocol which comprises one hour of incubation at 37° C., as follows: • 1) M20 on its own; the Tac is therefore on its own without emulsifier; • 2) M20+SML (sorbitan monolaurate) emulsifier • 3) M20+SMP (sorbitan monopalmitate) emulsifier • 4) M20+MOSE (ethoxylated sorbitan monooleate)

[6] = test system: cholesterol ester hydrolase (pancreatin); assay: Combined release of Tac from silica support and hydrolysis of the released Tac to Tol (Example 6); format: in vitro ADME
Protocol: The present example tests the effect of an emulsifier according to the invention, i.e. SMO (sorbitan monooleate). For this purpose, use is made of Tac on a silica support, in a ratio by weight of 1:1, for the assay without emulsifier, and of Tac+emulsifier (SMO) on silica, in a ratio by weight of 50:5:45.
8 mg of Tac (where appropriate +SMO) on the above silica (that is a final concentration of Tac of 16.9 μM) are incubated for 3 hours, while stirring and at 37° C., in the following solutions:
35 mM phosphate, pH 6.5, […] NaCl, pancreatin (2 mg) and bile salts (20 mM).
Before incubating, and after 1 hour and 3 hours, respectively, of incubation under the aforementioned conditions, the concentration of vitamin E in the solution is measured in comparison with the initial quantity of Tac.

[7] = molecular target: T1, cholesterol ester hydrolase (Homo sapiens, UniProt P19835); assay: Tac hydrolysis in M40 micelle above CaCo-2 cells, 2 hours (Example 8.2); format: in vitro ADME; conditions: Tac 67 nmol/cm^2; Tac/emulsifier ratio 100/1; 2 hours at 37° C.
T1 sequence (P19835 21-753): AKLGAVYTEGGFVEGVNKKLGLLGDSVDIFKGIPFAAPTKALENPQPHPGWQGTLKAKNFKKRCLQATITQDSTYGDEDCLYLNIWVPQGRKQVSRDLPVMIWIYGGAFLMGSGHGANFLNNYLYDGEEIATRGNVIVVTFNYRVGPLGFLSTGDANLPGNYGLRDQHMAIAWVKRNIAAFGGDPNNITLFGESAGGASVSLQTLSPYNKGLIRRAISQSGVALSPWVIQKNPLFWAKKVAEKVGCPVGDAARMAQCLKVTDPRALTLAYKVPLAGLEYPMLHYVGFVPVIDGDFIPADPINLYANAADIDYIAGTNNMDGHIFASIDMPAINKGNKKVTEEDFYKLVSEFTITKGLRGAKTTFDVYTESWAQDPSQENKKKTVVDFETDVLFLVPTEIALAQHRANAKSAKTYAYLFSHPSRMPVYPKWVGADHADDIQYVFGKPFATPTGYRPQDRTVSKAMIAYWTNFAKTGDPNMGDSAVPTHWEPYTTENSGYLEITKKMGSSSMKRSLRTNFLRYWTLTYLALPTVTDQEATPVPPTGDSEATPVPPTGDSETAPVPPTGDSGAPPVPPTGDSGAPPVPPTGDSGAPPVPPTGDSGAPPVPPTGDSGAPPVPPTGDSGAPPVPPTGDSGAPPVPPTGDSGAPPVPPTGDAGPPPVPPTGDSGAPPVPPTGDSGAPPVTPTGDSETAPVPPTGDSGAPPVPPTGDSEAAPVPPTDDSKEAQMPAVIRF
Protocol: The conditions under which the tests are carried out are as follows: • Cell model: CaCo-2 cells • Area of the wells: 4.2 cm^2 • Quantity of Tac: 67 nmol/cm^2 • Solution employed: M40 micelle in accordance with Mathias et al.
Treatments: • A: Without emulsifier • B: With emulsifier (SMP+SMO mixture; ratio 1/1), Tac/emulsifier ratio 100/1
Period of incubation: 2 hours at 37° C.
Analyses: Analysis of Tac in the medium above the cells for the purpose of calculating the degree of hydrolysis.

[8] = oral route, animals; cited from earlier work
[9] = Vitamin E levels in egg yolks of laying hens (Example 11); format: in vivo, ISA brown laying hens; conditions: supplementation level of 100 mg/kg feed
Protocol: Forty ISA brown laying hens, 23 weeks of age, were equally divided into 4 groups and individually housed in cages. The animals received the meal experimental diets (R1-R4) ad libitum for 21 days. The eggs layed on D20 to 21 were collected, weighed and stored at +4° C. The vitamin E levels in the egg yolk were determined by HPLC according to the method by […] et al. (2005). Data were analysed using the ANOVA procedure of Statview.

[10] = Vitamin E levels in liver and muscle of piglets (Example 13); conditions: points at 20 IU/kg and 150 IU/kg
Text: (§1) R1: Basal diet+20 IU/kg standard Vit E (in the form of dl-α-tocopheryl acetate)
R2: Control+150 IU/kg standard Vit E
(§2) Thirty crossbred weanling piglets (8.0 kg live weight) were divided into three groups (R1, R2, R3), kept individually and distributed according to a completely randomized block design. The piglets were fed ad libitum for 14 days on a corn-wheat based diet (Table 11). The diet was supplemented with either 20 IU/kg (R1) or 150 IU/kg (R2) standard DL-α-tocopheryl acetate. […] On day 15 of the experiment the animals were slaughtered and their liver dissected, immediately frozen under liquid nitrogen and ground to powder. Muscle samples (muscularis glutaeus maximus) of about 9 cm2 were obtained from the left hind leg and frozen immediately. The vitamin E content of the samples was determined by HPLC (Castan et al. 2005) and data were statistically analysed using one-way ANOVA.

[11] = in vivo
Text: as §1
R2: Control+150 IU/kg standard Vit E
as §2

[12] = Example 3.2, emulsifier:Tac 1:6.9
[13] = Example 3.3, emulsifier:Tac 1:6.9

CC(=O)Oc1c(C)c(C)c2c(c1C)CC[C@@](C)(CCC[C@H](C)CCC[C@H](C)CCCC(C)C)O2 [Tac, d,l-α-tocopheryl acetate]
Mean digestibility ([1]; first series, faeces at 48 hours): 24.8%
Mean digestibility ([1]; second series): 26.1%
overall plasma vitamin E level [2]: 5.72 nmol/mL
% of vitamin E released at pH 2.5 ([3]; 35 mM HCl/glycine, pH 2.5): 46.5%
% of vitamin E released at pH 6.5 ([3]; 35 mM phosphate, pH 6.5): 59.6%
slope of the curve of liver vitamin E level versus dietary dose ([4]; liver): 0.1896
slope of the curve of plasma vitamin E level versus dietary dose ([4]; plasma): 0.1211
Absorption, Tac [5, 12]: 1.68 nmol/cm^2
Absorption, Tol [5, 12]: 1.77 nmol/cm^2
Absorption, Vitamin E (Tol + Tac in vitamin E equivalent) [5, 12]: 3.45 nmol/cm^2
Absorption, Tac [5, 13]: 2.31 nmol/cm^2
Absorption, Tol [5, 13]: 1.29 nmol/cm^2
Absorption, Vitamin E (Tol + Tac in vitamin E equivalent) [5, 13]: 3.60 nmol/cm^2
concentration of vitamin E in the solution in comparison with the initial quantity of Tac ([6]; time 0 minutes (before incubating)): 1.21
concentration of vitamin E in the solution in comparison with the initial quantity of Tac ([6]; time 60 minutes): 1.30
concentration of vitamin E in the solution in comparison with the initial quantity of Tac ([6]; time 180 minutes): 5.25
Tac hydrolysis [7]: 9.7%
bioavailability [8]: ≤ 40%
total vitamin E content of the yolk [9]: 4.07 mg
slope of the regression curve for vitamin E contents in livers [10]: 1.89
slope of the regression curve for vitamin E contents in muscle samples [10]: 0.89
increase of vitamin E content in liver as compared to piglets fed 20 IU/kg DL-α-tocopheryl acetate [11]: 51%
increase of vitamin E content in muscle as compared to piglets fed 20 IU/kg DL-α-tocopheryl acetate [11]: 35%

Cc1c(C)c2c(c(C)c1O)CC[C@@](C)(CCC[C@H](C)CCC[C@H](C)CCCC(C)C)O2 [vitamin E, d-α-tocopherol]
bioavailability [8]: ≤ 50%
